The values below come from US20060167005A1, “New therapeutic uses of (4-(2-fluorophenyl)-6-methyl-2-(1-piperazinyl) thieno [2,3-d] pyrimidine” (priority 2002, published 2006).

For experiment [1], the system named is adult female obese Zucker rats. Description: Obesity and weight gain in obese Zucker rats over 32 days. The conditions noted are these: 30 mg/kg orally once daily, vs vehicle group. It counts as in vivo, rat. As to the method: MCI-225 is evaluated in adult female obese Zucker rats over a period of 32 days. A control group of 6 animals is dosed daily with vehicle alone whilst a second group of 6 weight-matched animals receives MCI-225 at 30 mg/kg given orally once daily. Food is available ad libitum, except on days 0, 7, 14, 21, 28 and 32 when food was removed from the animals at 7.30 am and animals weighed within 2 hours following removal of food. Food is supplied after weights of animals are measured.

Experiment [2] deals with alcohol-preferring rats. Description: Alcohol intake in alcohol-preferring rats. It counts as in vivo, rat. The conditions noted are these: 30 mg/kg/day orally over 4 consecutive days, vs vehicle. As to the method:
The effects of MCI-225 are determined in alcohol-preferring rats. Because of their pattern of drinking, these animals seem to represent a valid model of the human condition of alcoholism (McBride et al, 1990, Alcohol 7:199-205, Lankford et al, 1991, Pharmacol. Biochem. Behav., 8:293-299). After maximally preferred alcohol concentrations had stabilised for 4 days, MCI-225 at 30 mg/kg/day orally or vehicle was administered over 4 consecutive days.

The test system of experiment [3] is rats. The experiment in a line: Nicotine withdrawal model using the acoustic startle reflex in rats. It counts as in vivo, rat. To be noted: for example 30 mg/kg/day following nicotine withdrawal (nicotine 6 mg/kg/day s.c. for 12 days). As to the method:
The effects of MCI-225 are investigated in a model of nicotine withdrawal using the acoustic startle reflex in rats (see e.g. Helton et al, 1997, Neuropharmacology 36 (11-12):1511-1516). Nicotine (6 mg/kg/day) is administered for 12 days subcutaneously by osmotic minipumps. After 12 days, the pumps are removed and the animals allowed to go through spontaneous withdrawal. Cessation of chronic nicotine exposure leads to increased startle responses (sensorimotor reactivity) for 4 days following withdrawal.

Experiment [4] deals with rats. Description: Transient middle cerebral artery occlusion model in rats. It counts as in vivo, rat. The conditions noted are these: 30 mg/kg, for example 2 hours after onset of occlusion, vs vehicle-treated animals. From the text:
The effects of MCI-225 are studied in a transient middle cerebral artery occlusion model in rats (see Chen et al, 1999, J. Neurol. Sci. 171(1):24-30). In particular, effects on an array of functional measures are studied, including rotarod, adhesive-backed somatosensory and neurological scores.

In experiment [5] the test system is ferret. Description: Cisplatin-induced emesis in the ferret. Type of experiment: in vivo. The conditions noted are these: 30 mg/kg orally 1 hour prior to cisplatin, vs control animals. The text has this:
The effects of MCI-225 are studied against cisplatin-induced emesis in the ferret (see Florczyk et al, 1982, Cancer Treat. Rep. 66(1):187-189). […] Efficacy against cisplatin predicts efficacy against radiation-induced nausea/vomiting.

For the compound `Cc1cc2c(-c3ccccc3F)nc(N3CCNCC3)nc2s1.Cl.O` [MCI-225], the body weights result in experiment [1] is “lower body weights”. The “intake of alcohol in terms of absolute g/kg and/or proportion of alcohol to total fluid intake” value in experiment [2] is reported as “reduction in intake of alcohol”. Moreover, the “enhanced auditory startle response following withdrawal of nicotine” value in experiment [3] is listed as “attenuation of the enhanced auditory startle response”. In experiment [4], the “functional scores (rotarod, adhesive-backed somatosensory, neurological) following ischaemia” value is listed as “improvement in one or more of the functional scores”. Also, in experiment [5], the emetic response result is “reduction in the emetic response”.
